Measured values reported in patent US20100298141A1, “SUBSTITUTED PYRIDINE N-OXIDE HERBICIDES” (E. I. DU PONT DE NEMOURS AND COMPANY, priority 2007, published 2010).

Experiments:
cocklebur = experiment: Test C pre-/postemergence test; format: in vivo, Xanthium strumarium
Outline: (§1)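 Seeds were planted and treated preemergence with test chemical in a non-phytotoxic solvent mixture containing surfactant. Postemergence applications of the same formulation went onto plants 2 to 18 cm tall (1- to 4-leaf stage). A dash marks no test result.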

wild oat = experiment: Test C pre-/postemergence test; format: in vivo, Avena fatua; details: Preemergence
Outline: as §1

johnsongrass = experiment: Test C pre-/postemergence test; format: in vivo, Sorghum halepense; details: Preemergence
Outline: as §1

downy brome = experiment: Test C pre-/postemergence test; format: in vivo, Bromus tectorum
Outline: as §1

eastern black nightshade = experiment: Test C pre-/postemergence test; format: in vivo, Solanum ptycanthum; details: Preemergence
Outline: as §1

rice = experiment: Test C flooded paddy test; format: in vivo, Oryza sativa; details: Flood
Outline: (§2)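 Under a constant 3 cm flood, test compounds went directly into the paddy water. Following 13 to 15 days of greenhouse growth, treated species and controls were compared by eye.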

redroot pigweed = experiment: Test A pre-/postemergence greenhouse test; format: in vivo, Amaranthus retroflexus; details: for Pigweed plant response rating: 0 to 100 scale
Outline: (§3)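 Two application timings were run side by side in the greenhouse. Before emergence, compound went onto the soil surface of loam–sand pots as a directed spray; after emergence, plants at 2–10 cm and the one- to two-leaf stage were treated. Visual injury versus controls was rated at approximately day ten.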

Surinam grass = experiment: Test C pre-/postemergence test; format: in vivo, Brachiaria decumbens; details: Preemergence
Outline: as §1

duck salad = experiment: Test C flooded paddy test; format: in vivo, Heteranthera limosa; details: Flood
Outline: as §2

lambsquarters = experiment: Test C pre-/postemergence test; format: in vivo, Chenopodium album; details: Preemergence
Outline: as §1

giant foxtail = experiment: Test C pre-/postemergence test; format: in vivo, Setaria faberii; details: Preemergence
Outline: as §1

barnyardgrass = experiment: Test A pre-/postemergence greenhouse test; format: in vivo, Echinochloa crus-galli; details: for Barnyardgrass plant response rating: 0 to 100 scale
Outline: as §3

velvetleaf [1] = experiment: Test A pre-/postemergence greenhouse test; format: in vivo, Abutilon theophrasti; details: for Velvetleaf plant response rating: 0 to 100 scale
Outline: as §3

velvetleaf [2] = experiment: Test C pre-/postemergence test; format: in vivo, Abutilon theophrasti; details: Preemergence
Outline: as §1

kochia = experiment: Test C pre-/postemergence test; format: in vivo, Kochia scoparia; details: 62 g ai/ha, Preemergence; scale 0 to 100
Outline: as §1

green foxtail = experiment: Test C pre-/postemergence test; format: in vivo, Setaria viridis; details: Preemergence
Outline: as §1

common ragweed = experiment: Test C pre-/postemergence test; format: in vivo, Ambrosia elation; details: Preemergence
Outline: as §1

crabgrass = experiment: Test C pre-/postemergence test; format: in vivo, Digitaria sanguinalis; details: Preemergence
Outline: as §1

[3] = 62 g ai/ha, Preemergence, scale 0 to 100
[4] = Preemergence, 31 g ai/ha, scale 0 to 100 (0 no effect, 100 complete control)
[5] = preemergence, 125 g ai/ha, scale 0 (no effect) to 100 (complete control)
[6] = 31 g ai/ha, scale 0 to 100 (0 no effect, 100 complete control)
[7] = 62 g ai/ha, scale 0 to 100, 0 no effect, 100 complete control, 13 to 15 days
[8] = 125 g ai/ha, scale 0 to 100, 0 no effect, 100 complete control, 13 to 15 days
[9] = 250 g ai/ha, scale 0 to 100 (0 no effect, 100 complete control)
[10] = Postemergence, 125 g ai/ha, 0 is no effect, 100 is complete control
[11] = Postemergence, 500 g ai/ha, 0 is no effect, 100 is complete control
[12] = Preemergence, 125 g ai/ha, 0 no effect, 100 complete control
[13] = Preemergence, 500 g ai/ha, 0 to 100 scale where 0 is no effect and 100 is complete control

CC(c1c(C(F)(F)F)nn(C)c1OC(F)F)S(=O)(=O)c1cc(C(C)(C)C)cc[n+]1[O-] (racemic) [Compound 26]
Cocklebur plant response rating (cocklebur; [3]): 0 | Plant response rating, Cocklebur (cocklebur; [4]): 0 | Plant response rating (0 to 100), Cocklebur (cocklebur; Preemergence, 250 g ai/ha): 50 | Cocklebur plant response rating (cocklebur; [5]): 0 | Oat, Wild plant response rating (wild oat; 62 g ai/ha, scale 0 to 100): 60 | Plant response rating, Oat, Wild (wild oat; [6]): 0 | Johnsongrass plant response rating (johnsongrass; 62 g ai/ha, scale 0 to 100): 85 | Plant response rating (0 to 100), Johnsongrass (johnsongrass; 250 g ai/ha): 100 | Bromegrass, Downy plant response rating (downy brome; [3]): 45 | Plant response rating, Bromegrass, Downy (downy brome; [4]): 0 | Plant response rating (0 to 100), Bromegrass, Downy (downy brome; Preemergence, 250 g ai/ha): 60 | Bromegrass, Downy plant response rating (downy brome; [5]): 45 | Nightshade plant response rating (eastern black nightshade; 62 g ai/ha, scale 0 to 100): 100 | Plant response rating, Nightshade (eastern black nightshade; [6]): 100 | Plant response rating, Rice (rice; [6]): 0 | Plant response rating, Rice (rice; [7]): 0 | Plant response rating, Rice (rice; [8]): 0 | Plant response rating, Rice (rice; [9]): 80 | Pigweed plant response rating (redroot pigweed; [10]): 40 | Pigweed plant response rating (redroot pigweed; [11]): 60 | Pigweed plant response rating (redroot pigweed; [12]): 90 | Plant response rating, Pigweed (redroot pigweed; [13]): 100 | Surinam Grass plant response rating (Surinam grass; 62 g ai/ha, scale 0 to 100): 40 | Plant response rating, Surinam Grass (Surinam grass; [6]): 10 | Plant response rating, Ducksalad (duck salad; [6]): 40 | Plant response rating, Ducksalad (duck salad; [7]): 65 | Plant response rating, Ducksalad (duck salad; [8]): 65 | Plant response rating, Ducksalad (duck salad; [9]): 90 | Lambsquarters plant response rating (lambsquarters; 62 g ai/ha, scale 0 to 100): 40 | Plant response rating, Lambsquarters (lambsquarters; [6]): 0 | Foxtail, Giant plant response rating (giant foxtail; 62 g ai/ha, scale 0 to 100): 70 | Plant response rating, Foxtail, Giant (giant foxtail; [6]): 40 | Plant response rating (0 to 100), Foxtail, Giant (giant foxtail; 250 g ai/ha): 75 | Barnyardgrass plant response rating (barnyardgrass; [10]): 0 | Barnyardgrass plant response rating (barnyardgrass; [11]): 0 | Barnyardgrass plant response rating (barnyardgrass; [12]): 60 | Plant response rating, Barnyardgrass (barnyardgrass; [13]): 90 | Velvetleaf plant response rating (velvetleaf [1]; [10]): 0 | Velvetleaf plant response rating (velvetleaf [1]; [11]): 0 | Velvetleaf plant response rating (velvetleaf [1]; [12]): 0 | Plant response rating, Velvetleaf (velvetleaf [1]; [13]): 70 | Velvetleaf plant response rating (velvetleaf [2]; 62 g ai/ha, scale 0 to 100): 80 | Plant response rating, Velvetleaf (velvetleaf [2]; [6]): 30 | Kochia plant response rating (kochia): 0 | Foxtail, Green plant response rating (green foxtail; 62 g ai/ha, scale 0 to 100): 85 | Plant response rating, Foxtail, Green (green foxtail; [6]): 10 | Plant response rating (0 to 100), Foxtail, Green (green foxtail; 250 g ai/ha): 100 | Ragweed plant response rating (common ragweed; 62 g ai/ha, scale 0 to 100): 20 | Plant response rating, Ragweed (common ragweed; [6]): 0 | Crabgrass, Large plant response rating (crabgrass; 62 g ai/ha, scale 0 to 100): 100 | Plant response rating, Crabgrass, Large (crabgrass; [6]): 100 | Plant response rating (0 to 100), Crabgrass, Large (crabgrass; 250 g ai/ha): 100
